Test system: IL-6
Experiment: IL-6 production by NHEKs in the inflammatory state (PMA + calcium ionophore, 0.8 mM Ca2+), ELISA
Type: cell-based, human
Conditions: PMA + calcium ionophore A23187, 0.8 mM Ca2+, compounds 50 μM, dexamethasone 10 μM, relative to induced control
Method: The study was carried out on Normal Human Epidermal Keratinocytes (NHEKs) (Lonza, CC-2507, origin: foreskin) in monolayer culture in Epilife medium (Invitrogen, M-EPI-500-A) containing the components of the Human Keratinocyte Growth Supplement (HKGS) mixture (Invitrogen, S-001-K) added separately, except hydrocortisone having anti-inflammatory properties.
For the quantification of IL-8 and PGE2, the inflammatory state of the NHEKs in culture was induced by treatment with PMA (phorbol myristate acetate/10 ng/ml/H2O) for 24 h. […]
Quantification of the various inflammatory mediators was carried out with specific kits, based on a standard curve, according to the instructions provided by the kits' suppliers, R&D Systems and Cayman Chemical.
Before induction of the inflammatory state, the NHEKs were treated with the compounds and reference molecules for 2 h. The inflammatory state was then induced according to the conditions described in the methodology section, the culture supernatants were collected, and the various inflammatory mediators were quantified by the ELISA technique.
The effect of the compounds on IL-6 production by NHEKs in the inflammatory state is shown in FIG. 6 and is expressed as a percentage of the treatment with PMA combined with calcium ionophore A23187 (under high-calcium conditions: 0.8 mM Ca2+).

CCCCCCCCNC(=O)[C@]1(O)C[C@@H](OC(=O)/C=C/c2ccc(O)c(O)c2)[C@@H](O)[C@H](OC(=O)/C=C/c2ccc(O)c(O)c2)C1 [PAT1657, (2E,2′E)-((1R,2S,3R,5S)-2,5-dihydroxy-5-(octylcarbamoyl)cyclohexane-1,3-diyl) bis(3-(3,4-dihydroxyphenyl)acrylate)] was tested, and the IL-6 production was “largest decreases and are more effective than dexamethasone itself”.
